Experimental data reported in patent US12246026B2, “Ganaxolone for use in treatment of status epilepticus” (Marinus Pharmaceuticals, Inc., priority 2019, dated 2025).

What was measured:
Solubility of ganaxolone = assay type: physicochemical
Procedure: Ganaxolone is insoluble in water. […] Ganaxolone has a relatively long half-life—approximately 20 hours in human plasma following oral administration (Nohria, V. and Giller, E., Neurotherapeutics, (2007) 4(1): 102-105). Furthermore, ganaxolone has a short Tmax, which means that therapeutic blood levels are reached quickly.
Ganaxolone formulations suitable for parenteral administration in the methods of the present invention may comprise physiologically acceptable sterile aqueous or non-aqueous solutions, dispersions, suspensions or emulsions, and sterile powders for reconstitution into sterile injectable solutions or dispersions. Examples of suitable aqueous and non-aqueous carriers, diluents, solvents, or vehicles including water, ethanol, polyols (propylene glycol, polyethylene-glycol, glycerol, cremophor and the like), suitable mixtures thereof, vegetable oils (such as olive oil) and injectable organic esters such as ethyl oleate. Additionally, ganaxolone can be dissolved at concentrations of >1 mg/ml using water soluble beta cyclodextrins (e.g. beta-sulfobutyl-cyclodextrin and 2-hydroxypropylbetacyclodextrin). A particularly suitable cyclodextrin is a substituted-β-cyclodextrin is Captisol®. […]

[1] = Toxicology studies in animals on prenatal and neonatal development; assay type: in vivo
Description: Ganaxolone has been administered to infants with severe forms of epilepsy as early as 4 months of age. In clinical trials involving administration of ganaxolone over several weeks, the study drug has been tapered off over a 1 to 2-week period.

[2] = Phase 2 Study 1042-SE-2001 open-label group, GNX plasma concentration and PK modeling; assay type: in vivo, human
Procedure: These infusion dosing parameters are expected to result in daily doses of ganaxolone of about ≤714 mg/day and Captisol of about ≤50 grams/day. Based on PK modeling, it is predicted that maximum concentrations of ganaxolone should remain within 1,000 ng/mL during infusion, but some variability is expected due to, for example, differences in subjects' weight.
As of 22 Mar. 2019, 5 subjects were enrolled into the Study 1042-SE-2001 open-label group under the original protocol that limits daily Captisol exposure at 35 g/day. […] The initial EEG pattern post-infusion initiation was described by study physicians as a “light” burst suppression that was maintained for several hours in all subjects. […] It was observed that when GNX exposure was lowered (20 mg/hr for 2 hours and ending with 10 mg/hr for the remaining 18 hours on Day 1) in order not to exceed this limit, seizure control could not be maintained and seizure activity (but not SE) re-occurred as evidenced by EEG changes. […] Seizure activity relapsed when plasma concentrations of GNX decreased <500 ng/mL in 4 out of 5 subjects.

subject with SRSE = test: Emergency IND No. 131,642, IV GNX in SRSE, EEG response; assay type: in vivo, human
Procedure: (§1) Under eIND No. 131,642, IV GNX was administered to a subject with SRSE who was unable to maintain status cessation with ketamine and barbiturates. The Day 1 dosage regimen delivered 900 mg of GNX, equating to a 900 to 1200 ng/mL plasma concentration of GNX. As the subject could not be maintained in burst suppression, the clinical team was able to utilize EEG changes to gauge the response (FIG. 11). […] However, due to the dosing plan agreed upon with the FDA with a daily Captisol limit of 63 g/day, the initial 120 mg/hr dose on Day 1 could not be maintained for longer than 1 hour and then had to be decreased to the 30 mg/hr dose. The first seizures re-occurred within 15 to 20 minutes of the change in GNX dose from 120 mg/hr to 30 mg/hr.

[3] = Emergency IND No. 131,642, GNX plasma concentration; assay type: in vivo; conditions: human, intravenous, eIND 131,642, Day 1 regimen delivering 900 mg
Procedure: as §1

RSE patients = test: Phase 2 open-label dose range study, efficacy in RSE patients; assay type: in vivo, human; conditions: for GNX plasma concentration whose acute maintenance was associated with improved seizure control on EEG: PK/PD relationship, FIGS. 13A-13D
Procedure: Eligible patients were treated with continuous adjunctive IV ganaxolone infusion. Initial dosing included a 3-minute bolus dose (25 or 30 mg) with a continuous infusion at rates ranging from 10 to 85 mg/hour for up to 96-hours, followed by an 18-hour study drug taper.
The study enrolled 17 patients divided among 3 dosing cohorts. The IV solution utilizes Captisol® as an excipient for solubilization of ganaxolone. In an agreement with the Food and Drug Administration (FDA), the Captisol exposure for patients participating in Study 1042-SE-2001 was not to exceed 50 g/day. Given the daily Captisol limit, 3 different doses of GNX IV solution were investigated; 500, 650, and 713 mg/day total GNX referred to as the low, medium, and high dose level cohorts, respectively.

[4] = cited from earlier work
[5] = test system: pediatric subject with SRSE; test: Emergency IND No. 137,883, IV GNX in pediatric SRSE
[6] = PK modeling data from 5 subjects
[7] = Medium cohort, 650 mg/day, n = 4
[8] = Target cohort, 713 mg/day, n = 8

Which results are given for `CC(=O)[C@H]1CC[C@H]2[C@@H]3CC[C@H]4C[C@](C)(O)CC[C@]4(C)[C@H]3CC[C@]12C` [Ganaxolone, 3α-hydroxy-3β-methyl-5α-pregnan-20-one]?
solubility (Solubility of ganaxolone; aqueous with cosolvent or surfactant or cyclodextrin, beta-sulfobutyl-cyclodextrin, 2-hydroxypropylbetacyclodextrin, read-out: dissolved concentration using water soluble beta cyclodextrins): > 1000 µg/mL; solubility in water (Solubility of ganaxolone; water): insoluble; toxicities in prenatal and neonatal development studies [1]: have not demonstrated toxicities; GNX exposure associated with seizure relapse [2, 6]: < 500 ng/mL; GNX exposure level associated with rapid and complete SE suppression [2, 6]: approximately 1000 ng/mL; GNX plasma concentration at the time of seizure relapse ([2]; Subject 004-101): < 500 ng/mL; GNX plasma concentration at the time of seizure relapse ([2]; Subject 006-101): < 500 ng/mL; GNX plasma concentration at the time of seizure relapse ([2]; Subject 006-102): < 500 ng/mL; dose at which the effect of GNX started (subject with SRSE; eIND 131,642): 60 mg/h; EEG seizure response (subject with SRSE; eIND 131,642, at 120 mg/hr): complete seizure cessation; time to first seizure re-occurrence after dose change (subject with SRSE; eIND 131,642, change from 120 mg/hr to 30 mg/hr): 15 to 20 min; concentration at 1 day [3]: 900 to 1200 ng/mL; reduction in EEG seizure burden (RSE patients; 15 evaluable patients, low, medium and high cohorts): rapid and dose-dependent sustained reduction in EEG seizure burden; No SE Relapse at anytime during the 4-wk follow up period (RSE patients; Low cohort, 500 mg/day, 1 of 2 (1 died)): 50%; No escalation to IV anesthetics within 24 hrs from infusion initiation(Primary Endpoint) (RSE patients; Low cohort, 500 mg/day, n = 5): 100%; No escalation to additional IV AEDs or IV anesthetics for status relapse at any time through 24 hrs after GNX discontinuation (RSE patients; Low cohort, 500 mg/day, n = 5): 60%; Status-free through 24 hrs from infusion initiation (RSE patients; Low cohort, 500 mg/day, n = 5): 100%; No SE Relapse at anytime during the 4-wk follow up period (RSE patients; Medium cohort, 650 mg/day, 2 of 3 (1 ET)): 67%; No escalation to IV anesthetics within 24 hrs from infusion initiation(Primary Endpoint) (RSE patients; [7]): 100%; No escalation to additional IV AEDs or IV anesthetics for status relapse at any time through 24 hrs after GNX discontinuation (RSE patients; [7]): 75%; Status-free through 24 hrs from infusion initiation (RSE patients; [7]): 100%; GNX plasma concentration whose acute maintenance was associated with improved seizure control on EEG (RSE patients): ≥ 500 ng/mL; GNX plasma concentration whose acute maintenance was associated with improved seizure control on EEG (RSE patients; listed as GNX): > 500 ng/mL; No SE Relapse at anytime during the 4-wk follow up period (RSE patients; Target cohort, 713 mg/day, 6 of 6 (1ET, 1 died)): 100%; No escalation to IV anesthetics within 24 hrs from infusion initiation(Primary Endpoint) (RSE patients; [8]): 100%; No escalation to additional IV AEDs or IV anesthetics for status relapse at any time through 24 hrs after GNX discontinuation (RSE patients; [8]): 100%; Status-free through 24 hrs from infusion initiation (RSE patients; [8]): 88%; patients not requiring additional IV AEDS or IV anesthetics for status relapse up to 4 weeks (RSE patients; all cohorts, 14 patients of 17): 82%; patients who achieved and maintained SE cessation within the first 24-hours (RSE patients; all cohorts, 16 patients of 17): 94%; patients not requiring escalation to an IV anesthetic drug for SE control within the first 24-hours (RSE patients; all cohorts, n=17): 100%; Median time to SE cessation from initiation of GNX treatment (RSE patients; all dose groups, n=15 evaluable patients): 5 min; patients with SE cessation achieved in <30 min (RSE patients; evaluable patients): 14 out of 15; half-life ([4]; human plasma following oral administration): approximately 20 hours; Tmax ([4]; human): short; duration of suppressed EEG background ([5]; eIND 137,883): approximately 2 hours; finding on examination leading to stop of infusion ([5]; eIND 137,883): nonreactive pupils; EEG at the time of GNX bolus infusion ([5]; eIND 137,883, concomitant pentobarbital 2.25 mg/kg/hr): continuous suppressed background
